The subject of this experiment is Aβ42. Put plainly: Aβ42 IC50 assay (SHSYSY-APP cell-based screening, UCSD sandwich Aβ42 ELISA). From the text:
FIG. 8: Representative concentration response curves of Compound 1 using our primary and orthogonal medium throughput SHSYSY-APP cell-based screening assays (10). Compounds are first screened two times in triplicate in our UCSD sandwich Aβ42 ELISA on sequential days and the average of the two assays must be within 3-fold of each other before being entered into the CDD relational database. The UCSD sandwich ELISA assay can easily handle 20 compounds per week. Compounds with Aβ42 IC50 values <100 nM continue through the testing funnel. The Z′ score and the % CV for the UCSD Aβ42 sandwich ELISA assay are 0.8 and 4, respectively. For the Meso Scale triplex assay the Z′ scores are 0.7, 0.9 and 0.6 Aβ42, Aβ40 and Aβ38, respectively and the % CV's are 7, 2 and 1 for Aβ42, Aβ40 and Aβ38, respectively. Aβ total peptides are measured using a sandwich ELISA.
Tabular Results of A1142 Assays Conducted on Compounds of Examples 5-102. Assays are Aβ42 IC50 (nM).
In general terms: ELISA stands for enzyme-linked immunosorbent assay.
The IC50 is the concentration needed to halve the response being measured. The molecule `COc1cccc([C@H](C)Nc2nnc(-c3ccc(-n4cnc(C)c4)c(OC)n3)cc2C)c1` [Example 44, (S)-6-(6-methoxy-5-(4-methyl-1H-imidazol-1-yl)pyridin-2-yl)-N-(1-(3-methoxyphenyl)ethyl)-4-methylpyridazin-3-amine] showed an IC50 of 10.5 nM.

On to `COc1cc([C@H](C)Nc2nnc(-c3ccc(-n4cnc(C)c4)c(OC)n3)cc2C)ccc1F` [Example 47, (S)—N-(1-(4-fluoro-3-methoxyphenyl)ethyl)-6-(6-methoxy-5-(4-methyl-1H-imidazol-1-yl)pyridin-2-yl)-4-methylpyridazin-3-amine], for which the IC50 was 15 nM.

`COc1nc(-c2cc(C)c(N[C@@H](C)c3cccc(C)c3)nn2)ccc1-n1cnc(C)c1` [Example 48, (S)-6-(6-methoxy-5-(4-methyl-1H-imidazol-1-yl)pyridin-2-yl)-4-methyl-N-(1-(m-tolyl)ethyl)pyridazin-3-amine] returned an IC50 of 6.3 nM.

Consider `COc1nc(-c2cc(C)c(N[C@@H](C)c3cccc(C(F)(F)F)c3)nn2)ccc1-n1cnc(C)c1` [Example 49, (S)-6-(6-methoxy-5-(4-methyl-1H-imidazol-1-yl)pyridin-2-yl)-4-methyl-N-(1-(3-(trifluoromethyl)phenyl)ethyl)pyridazin-3-amine], for which half-maximal inhibition (IC50) was put at 7 nM.

Consider `COc1nc(-c2cc(C)c(N[C@@H](C)c3ccc(F)c(C)c3)nn2)ccc1-n1cnc(C)c1` [Example 51, (S)—N-(1-(4-fluoro-3-methylphenyl)ethyl)-6-(6-methoxy-5-(4-methyl-1H-imidazol-1-yl)pyridin-2-yl)-4-methylpyridazin-3-amine], for which the IC50 was found to be 8.3 nM.

Molecule `COc1nc(-c2cc(C)c(N[C@@H](C)c3cc(F)c(F)c(F)c3)nn2)ccc1-n1cnc(C)c1` [Example 52, (S)-6-(6-methoxy-5-(4-methyl-1H-imidazol-1-yl)pyridin-2-yl)-4-methyl-N-(1-(3,4,5-trifluorophenyl)ethyl)pyridazin-3-amine] had an IC50 of 5 nM.

In turn, `COc1nc(-c2cc(C)c(N[C@@H](C)c3ccc(F)c(C(F)(F)F)c3)nn2)ccc1-n1cnc(C)c1` [Example 53, (S)—N-(1-(4-fluoro-3-(trifluoromethyl)phenyl)ethyl)-6-(6-methoxy-5-(4-methyl-1H-imidazol-1-yl)pyridin-2-yl)-4-methylpyridazin-3-amine] showed an IC50 of 9.8 nM.

As for `COc1nc(-c2cc(C)c(N[C@@H](C)c3ccccc3C)nn2)ccc1-n1cnc(C)c1` [Example 55, (S)-6-(6-methoxy-5-(4-methyl-1H-imidazol-1-yl)pyridin-2-yl)-4-methyl-N-(1-(o-tolyl)ethyl)pyridazin-3-amine], it took 3.3 nM to reach half-maximal inhibition (IC50).

Consider `COc1nc(-c2cc(C)c(N[C@@H](C)c3ccccc3C(F)(F)F)nn2)ccc1-n1cnc(C)c1` [Example 56, (S)-6-(6-methoxy-5-(4-methyl-1H-imidazol-1-yl)pyridin-2-yl)-4-methyl-N-(1-(2-(trifluoromethyl)phenyl)ethyl)pyridazin-3-amine], for which it took 3 nM to reach half-maximal inhibition (IC50).

As for `COc1nc(-c2cc(C)c(N[C@H](c3ccc(F)cc3)C(C)C)nn2)ccc1-n1cnc(C)c1` [Example 57, (S)—N-(1-(4-fluorophenyl)-2-methylpropyl)-6-(6-methoxy-5-(4-methyl-1H-imidazol-1-yl)pyridin-2-yl)-4-methylpyridazin-3-amine], the IC50 was found to be 4 nM.

As to `COc1nc(-c2cc(C)c(N[C@@H](C)C3CCCCC3)nn2)ccc1-n1cnc(C)c1` [Example 58, (S)—N-(1-cyclohexylethyl)-6-(6-methoxy-5-(4-methyl-1H-imidazol-1-yl)pyridin-2-yl)-4-methylpyridazin-3-amine], the IC50 is 12 nM.

In turn, `COc1nc(-c2cc(C)c(N[C@@H](C)c3ccncc3)nn2)ccc1-n1cnc(C)c1` [Example 59, (S)-6-(6-methoxy-5-(4-methyl-1H-imidazol-1-yl)pyridin-2-yl)-4-methyl-N-(1-(pyridin-4-yl)ethyl)pyridazin-3-amine] returned an IC50 of 778 nM.

Molecule `COc1nc(-c2cc(C)c(NC3(c4ccc(F)cc4)CC3)nn2)ccc1-n1cnc(C)c1` [Example 60, N-(1-(4-fluorophenyl)cyclopropyl)-6-(6-methoxy-5-(4-methyl-1H-imidazol-1-yl)pyridin-2-yl)-4-methylpyridazin-3-amine] showed a half-maximal inhibitory concentration (IC50) of 12 nM.

Consider `COc1nc(-c2cc(C)c(N[C@@H](C)C(C)C)nn2)ccc1-n1cnc(C)c1` [Example 61, (S)-6-(6-methoxy-5-(4-methyl-1H-imidazol-1-yl)pyridin-2-yl)-4-methyl-N-(3-methylbutan-2-yl)pyridazin-3-amine], for which the midpoint of inhibition, the IC50, lay at 27 nM.

For the molecule `COC[C@H](C)Nc1nnc(-c2ccc(-n3cnc(C)c3)c(OC)n2)cc1C` [Example 62, (S)-6-(6-methoxy-5-(4-methyl-1H-imidazol-1-yl)pyridin-2-yl)-N-(1-methoxypropan-2-yl)-4-methylpyridazin-3-amine], half-maximal inhibition (IC50) required 2160 nM.

In turn, `CC[C@H](C)Nc1nnc(-c2ccc(-n3cnc(C)c3)c(OC)n2)cc1C` [Example 63, (S)—N-(sec-butyl)-6-(6-methoxy-5-(4-methyl-1H-imidazol-1-yl)pyridin-2-yl)-4-methylpyridazin-3-amine] displayed an IC50 of 79 nM.

On to `COc1nc(-c2cc(C)c(N[C@@H](C)CO)nn2)ccc1-n1cnc(C)c1` [Example 64, (S)-2-((6-(6-methoxy-5-(4-methyl-1H-imidazol-1-yl)pyridin-2-yl)-4-methylpyridazin-3-yl)amino) propan-1-ol], for which the IC50 is > 10000 nM.

`COc1nc(-c2cc(C)c(N[C@H](C)C(C)C)nn2)ccc1-n1cnc(C)c1` [Example 66, (R)-6-(6-methoxy-5-(4-methyl-1H-imidazol-1-yl)pyridin-2-yl)-4-methyl-N-(3-methylbutan-2-yl)pyridazin-3-amine] gave an IC50 of 53 nM.

`COc1nc(-c2cc(C)c(N[C@@H](C)c3ccccn3)nn2)ccc1-n1cnc(C)c1` [Example 67, (S)-6-(6-methoxy-5-(4-methyl-1H-imidazol-1-yl)pyridin-2-yl)-4-methyl-N-(1-(pyridin-2-yl)ethyl)pyridazin-3-amine] yielded an IC50 of 95 nM.

Consider `COc1nc(-c2cc(C)c(N[C@H](C)c3ccccc3)nn2)ccc1-n1cnc(C)c1` [Example 68, (R)-6-(6-methoxy-5-(4-methyl-1H-imidazol-1-yl)pyridin-2-yl)-4-methyl-N-(1-phenylethyl)pyridazin-3-amine], for which half-maximal inhibition (IC50) required 80 nM.

`COc1nc(-c2cc(C)c(N[C@@H](C)c3ccc(F)cc3C)nn2)ccc1-n1cnc(C)c1` [Example 69, (S)—N-(1-(4-fluoro-2-methylphenyl)ethyl)-6-(6-methoxy-5-(4-methyl-1H-imidazol-1-yl)pyridin-2-yl)-4-methylpyridazin-3-amine] yielded an IC50 of 4.5 nM.

Molecule `COc1nc(-c2cc(C)c(NC3CC3)nn2)ccc1-n1cnc(C)c1` [Example 70, N-cyclopropyl-6-(6-methoxy-5-(4-methyl-1H-imidazol-1-yl)pyridin-2-yl)-4-methylpyridazin-3-amine] came in with an IC50 of 425 nM.

Molecule `COc1nc(-c2cc(C)c(N[C@@H](CO)c3ccc(F)cc3)nn2)ccc1-n1cnc(C)c1` [Example 71, (R)-2-(4-fluorophenyl)-2-((6-(6-methoxy-5-(4-methyl-1H-imidazol-1-yl)pyridin-2-yl)-4-methylpyridazin-3-yl)amino)ethanol] displayed an IC50 of 22 nM.

The molecule `COc1nc(-c2cc(C)c(N[C@@H](C)c3c(F)cc(F)cc3F)nn2)ccc1-n1cnc(C)c1` [Example 75, (S)-6-(6-methoxy-5-(4-methyl-1H-imidazol-1-yl)pyridin-2-yl)-4-methyl-N-(1-(2,4,6-trifluorophenyl)ethyl)pyridazin-3-amine] yielded an IC50 of 3.5 nM.

As for `COc1nc(-c2cc(C)c(N[C@@H](C)C(C)(C)C)nn2)ccc1-n1cnc(C)c1` [Example 76, (S)—N-(3,3-dimethylbutan-2-yl)-6-(6-methoxy-5-(4-methyl-1H-imidazol-1-yl)pyridin-2-yl)-4-methyl pyridazin-3-amine], the midpoint of inhibition, the IC50, lay at 29 nM.

The molecule `COc1nc(-c2cc(C)c(N[C@@H](C)c3ccc(C#N)cc3)nn2)ccc1-n1cnc(C)c1` [Example 77, (S)-4-(1-((6-(6-methoxy-5-(4-methyl-1H-imidazol-1-yl)pyridin-2-yl)-4-methylpyridazin-3-yl)amino)ethyl)benzonitrile] returned an IC50 of 27 nM.

Take `COc1nc(-c2cc(C)c(NC3CCCC3)nn2)ccc1-n1cnc(C)c1` [Example 78, N-cyclopentyl-6-(6-methoxy-5-(4-methyl-1H-imidazol-1-yl)pyridin-2-yl)-4-methylpyridazin-3-amine]: half-maximal inhibition (IC50) was put at 61 nM.

With `CCC[C@H](Nc1nnc(-c2ccc(-n3cnc(C)c3)c(OC)n2)cc1C)c1ccc(F)cc1` [Example 79, (S)—N-(1-(4-fluorophenyl)butyl)-6-(6-methoxy-5-(4-methyl-1H-imidazol-1-yl)pyridin-2-yl)-4-methylpyridazin-3-amine], half-maximal inhibition (IC50) required 7.5 nM.

`COc1nc(-c2cc(C)c(N[C@H](CO)c3ccc(F)cc3)nn2)ccc1-n1cnc(C)c1` [Example 80, (S)-2-(4-fluorophenyl)-2-((6-(6-methoxy-5-(4-methyl-1H-imidazol-1-yl)pyridin-2-yl)-4-methylpyridazin-3-yl)amino)ethanol] displayed an IC50 of 1100 nM.

Turning to `COc1nc(-c2cc(C)c(NC3CCCCC3)nn2)ccc1-n1cnc(C)c1` [Example 81, N-cyclohexyl-6-(6-methoxy-5-(4-methyl-1H-imidazol-1-yl)pyridin-2-yl)-4-methylpyridazin-3-amine], the IC50 was 27 nM.

(Values after patent publication US10472346B2, “Potent gamma-secretase modulators” (The General Hospital Coporation, priority 2014, dated 2019).)
